Reference: the supplement of paper PMC10307832

Columns and labels:
Test in all cases: relative viability (nuclei count vs DMSO), 5 days (fraction); higher = more cells survive
201T = system: 201T
Method in brief: (§1)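 One day after seeding in 1536-well plates, lung cancer cell lines were dosed by pin tool. Dosing was either single-drug or a fixed anchor-drug dose plus five library-drug doses (not always all listed) in √10 steps. After 5 days, nuclei were stained in one fix-and-stain step and counted on 4× images, and relative viability is the nuclei count of treated wells over that of vehicle wells, given as the median of duplicate plates.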

BEN = system: BEN
Method in brief: as §1

EPLC-272H = system: EPLC-272H
Method in brief: as §1

HCC-15 = system: HCC-15
Method in brief: as §1

HCC-78 = system: HCC-78
Method in brief: as §1

LCLC-97TM1 = system: LCLC-97TM1
Method in brief: as §1

LU99A = system: LU99A
Method in brief: as §1

NCI-H1355 = system: NCI-H1355
Method in brief: as §1

NCI-H1395 = system: NCI-H1395
Method in brief: as §1

NCI-H2009 = system: NCI-H2009
Method in brief: as §1

NCI-H2085 = system: NCI-H2085
Method in brief: as §1

NCI-H2126 = system: NCI-H2126
Method in brief: as §1

NCI-H2228 = system: NCI-H2228
Method in brief: as §1

NCI-H2342 = system: NCI-H2342
Method in brief: as §1

NCI-H23 = system: NCI-H23
Method in brief: as §1

NCI-H2405 = system: NCI-H2405
Method in brief: as §1

NCI-H322M = system: NCI-H322M
Method in brief: as §1

NCI-H460 = system: NCI-H460
Method in brief: as §1

NCI-H647 = system: NCI-H647
Method in brief: as §1

NCI-H650 = system: NCI-H650
Method in brief: as §1

NCI-H661 = system: NCI-H661
Method in brief: as §1

NCI-H838 = system: NCI-H838
Method in brief: as §1

PC-14 = system: PC-14
Method in brief: as §1

In the case of `Cc1cn(-c2cc(NC(=O)c3ccc(C)c(Nc4nccc(-c5cccnc5)n4)c3)cc(C(F)(F)F)c2)cn1` [Nilotinib] + CC(=O)c1c(C)c2cnc(Nc3ccc(N4CCNCC4)cn3)nc2n(C2CCCC2)c1=O [Palbociclib] (partner 0.5 µM), the relative viability (201T; first compound 0.001 µM) is reported as 0.326, the relative viability (201T; first compound 0.003162 µM) is reported as 0.371 and the relative viability (201T; first compound 0.01 µM) is reported as 0.363. For the same compound, the relative viability (201T; first compound 0.03162 µM) was 0.363, the relative viability (201T; first compound 0.1 µM) was 0.351 and the relative viability (BEN; first compound 0.001 µM) was 0.484. For the same compound, the relative viability (BEN; first compound 0.003162 µM) was 0.489, the relative viability (BEN; first compound 0.01 µM) was 0.465 and the relative viability (BEN; first compound 0.03162 µM) was 0.548. It also gave a relative viability (BEN; first compound 0.1 µM) of 0.503, a relative viability (EPLC-272H; first compound 0.001 µM) of 0.348 and a relative viability (EPLC-272H; first compound 0.003162 µM) of 0.345. It also gave a relative viability (EPLC-272H; first compound 0.03162 µM) of 0.291, a relative viability (EPLC-272H; first compound 0.1 µM) of 0.39 and a relative viability (HCC-15; first compound 0.001 µM) of 0.688. The relative viability (HCC-15; first compound 0.003162 µM) was 0.882, the relative viability (HCC-15; first compound 0.01 µM) was 0.87 and the relative viability (HCC-15; first compound 0.03162 µM) was 0.578. It also gave a relative viability (HCC-15; first compound 0.1 µM) of 0.476, a relative viability (HCC-78; first compound 0.001 µM) of 0.476 and a relative viability (HCC-78; first compound 0.003162 µM) of 0.509. For the same compound, the relative viability (HCC-78; first compound 0.01 µM) was 0.532, the relative viability (HCC-78; first compound 0.03162 µM) was 0.468 and the relative viability (HCC-78; first compound 0.1 µM) was 0.524. The relative viability (LCLC-97TM1; first compound 0.001 µM) was 0.222, the relative viability (LCLC-97TM1; first compound 0.003162 µM) was 0.245 and the relative viability (LCLC-97TM1; first compound 0.01 µM) was 0.225. The relative viability (LCLC-97TM1; first compound 0.1 µM) was 0.254, the relative viability (LU99A; first compound 0.001 µM) was 0.408 and the relative viability (LU99A; first compound 0.003162 µM) was 0.377. It also gave a relative viability (LU99A; first compound 0.01 µM) of 0.402, a relative viability (LU99A; first compound 0.03162 µM) of 0.44 and a relative viability (LU99A; first compound 0.1 µM) of 0.314. It also gave a relative viability (NCI-H1355; first compound 0.001 µM) of 0.423, a relative viability (NCI-H1355; first compound 0.003162 µM) of 0.457 and a relative viability (NCI-H1355; first compound 0.01 µM) of 0.486. It also gave a relative viability (NCI-H1355; first compound 0.03162 µM) of 0.494, a relative viability (NCI-H1355; first compound 0.1 µM) of 0.468 and a relative viability (NCI-H1395; first compound 0.001 µM) of 0.636. The relative viability (NCI-H1395; first compound 0.01 µM) was 0.692, the relative viability (NCI-H1395; first compound 0.03162 µM) was 0.612 and the relative viability (NCI-H1395; first compound 0.1 µM) was 0.599. The relative viability (NCI-H2009; first compound 0.001 µM) was 0.21, the relative viability (NCI-H2009; first compound 0.003162 µM) was 0.191 and the relative viability (NCI-H2009; first compound 0.01 µM) was 0.193. The relative viability (NCI-H2009; first compound 0.03162 µM) was 0.211, the relative viability (NCI-H2009; first compound 0.1 µM) was 0.191 and the relative viability (NCI-H2085; first compound 0.001 µM) was 0.525. For the same compound, the relative viability (NCI-H2085; first compound 0.003162 µM) was 0.489, the relative viability (NCI-H2085; first compound 0.01 µM) was 0.536 and the relative viability (NCI-H2085; first compound 0.03162 µM) was 0.498. For the same compound, the relative viability (NCI-H2085; first compound 0.1 µM) was 0.393, the relative viability (NCI-H2126; first compound 0.001 µM) was 0.337 and the relative viability (NCI-H2126; first compound 0.003162 µM) was 0.333. It also gave a relative viability (NCI-H2126; first compound 0.01 µM) of 0.382, a relative viability (NCI-H2126; first compound 0.03162 µM) of 0.321 and a relative viability (NCI-H2126; first compound 0.1 µM) of 0.346. For the same compound, the relative viability (NCI-H2228; first compound 0.001 µM) was 0.677, the relative viability (NCI-H2228; first compound 0.003162 µM) was 0.924 and the relative viability (NCI-H2228; first compound 0.01 µM) was 0.935. The relative viability (NCI-H2228; first compound 0.03162 µM) was 0.395, the relative viability (NCI-H2228; first compound 0.1 µM) was 0.406 and the relative viability (NCI-H2342; first compound 0.001 µM) was 0.508. The relative viability (NCI-H2342; first compound 0.003162 µM) was 0.559, the relative viability (NCI-H2342; first compound 0.01 µM) was 0.49 and the relative viability (NCI-H2342; first compound 0.03162 µM) was 0.489. It also gave a relative viability (NCI-H2342; first compound 0.1 µM) of 0.478, a relative viability (NCI-H23; first compound 0.001 µM) of 0.494 and a relative viability (NCI-H23; first compound 0.003162 µM) of 0.52. The relative viability (NCI-H23; first compound 0.01 µM) was 0.512, the relative viability (NCI-H23; first compound 0.03162 µM) was 0.443 and the relative viability (NCI-H23; first compound 0.1 µM) was 0.404. It also gave a relative viability (NCI-H2405; first compound 0.001 µM) of 0.493, a relative viability (NCI-H2405; first compound 0.003162 µM) of 0.485 and a relative viability (NCI-H2405; first compound 0.01 µM) of 0.529. The relative viability (NCI-H2405; first compound 0.03162 µM) was 0.467, the relative viability (NCI-H2405; first compound 0.1 µM) was 0.404 and the relative viability (NCI-H322M; first compound 0.001 µM) was 0.512. It also gave a relative viability (NCI-H322M; first compound 0.003162 µM) of 0.461, a relative viability (NCI-H322M; first compound 0.01 µM) of 0.534 and a relative viability (NCI-H322M; first compound 0.03162 µM) of 0.527. The relative viability (NCI-H322M; first compound 0.1 µM) was 0.602, the relative viability (NCI-H460; first compound 0.001 µM) was 0.101 and the relative viability (NCI-H460; first compound 0.003162 µM) was 0.0788. For the same compound, the relative viability (NCI-H460; first compound 0.01 µM) was 0.144, the relative viability (NCI-H460; first compound 0.03162 µM) was 0.148 and the relative viability (NCI-H460; first compound 0.1 µM) was 0.134. It also gave a relative viability (NCI-H647; first compound 0.001 µM) of 0.384, a relative viability (NCI-H647; first compound 0.003162 µM) of 0.382 and a relative viability (NCI-H647; first compound 0.01 µM) of 0.468. It also gave a relative viability (NCI-H647; first compound 0.03162 µM) of 0.266, a relative viability (NCI-H647; first compound 0.1 µM) of 0.26 and a relative viability (NCI-H650; first compound 0.001 µM) of 0.335. The relative viability (NCI-H650; first compound 0.01 µM) was 0.336, the relative viability (NCI-H650; first compound 0.03162 µM) was 0.305 and the relative viability (NCI-H650; first compound 0.1 µM) was 0.333. It also gave a relative viability (NCI-H661; first compound 0.001 µM) of 0.438, a relative viability (NCI-H661; first compound 0.003162 µM) of 0.396 and a relative viability (NCI-H661; first compound 0.01 µM) of 0.404. For the same compound, the relative viability (NCI-H661; first compound 0.03162 µM) was 0.444, the relative viability (NCI-H661; first compound 0.1 µM) was 0.361 and the relative viability (NCI-H838; first compound 0.001 µM) was 0.215. It also gave a relative viability (NCI-H838; first compound 0.003162 µM) of 0.23, a relative viability (NCI-H838; first compound 0.01 µM) of 0.188 and a relative viability (NCI-H838; first compound 0.03162 µM) of 0.198. For the same compound, the relative viability (NCI-H838; first compound 0.1 µM) was 0.201, the relative viability (PC-14; first compound 0.001 µM) was 0.45 and the relative viability (PC-14; first compound 0.003162 µM) was 0.741. The relative viability (PC-14; first compound 0.01 µM) was 0.666, the relative viability (PC-14; first compound 0.03162 µM) was 0.426 and the relative viability (PC-14; first compound 0.1 µM) was 0.713.
